This passage reports cytotoxicity results from ChEMBL document CHEMBL3507680, “University of Dundee, Gates Library screen for HepG2 cell viability”.

A short description of this data set: Human HepG2 cell viability assay in 384 well format. In kind it is toxicity, cell-based. Also noted: dose 125 nL, time 70.5 hour; concentration not given beside the values. To be noted: HepG2 cells, read-out: Inhibition.
Take `Cc1nc(-c2cccc(C(=O)N(C)CC(C)O)c2)cs1` (stereo unspecified): the cytotoxicity at 70.5 h came to 0.422%.

On to `Cc1ccc(C(=O)NS(=O)(=O)c2ccccc2Br)c(=O)[nH]1`, for which the cytotoxicity at 70.5 h was -7.74%.

`CO[C@@H]1CO[C@@]2(CCCN(C(=O)N3CCCC3)C2)C1`: the cytotoxicity at 70.5 h was 0.448%.

For the compound `CCC1c2ccsc2CCN1C(=O)NCc1ccnc(N(C)C)c1` (stereo unspecified), the cytotoxicity at 70.5 h is -9.44%.

As for `Cc1cc(OC(F)F)c(C(=O)N2CC[C@H](O)C2)s1`, the cytotoxicity at 70.5 h is -6.12%.

Consider `Cc1cc2c(=O)n3c(nc2s1)CCN(C(=O)c1nn(C)cc1Cl)CC3`, for which the cytotoxicity at 70.5 h was -4.02%.

With `CN(CC(=O)Nc1ccncc1)CC1CCCN1c1cccnn1` (stereo unspecified), the cytotoxicity at 70.5 h is -11.4%.

`COc1ncnc(N(C)C)c1NC(=O)c1cscc1C`: the cytotoxicity at 70.5 h is -9.9%.

As for `COc1ccccc1C1(O)CCCN(C(=O)c2cnc(SC)nc2)C1` (stereo unspecified), the cytotoxicity at 70.5 h was -3.73%.

Regarding `O=C(Cc1n[nH]c2ccccc12)N1CCC(Nc2cccnn2)CC1`, the cytotoxicity at 70.5 h was -2.23%.

As for `N#Cc1c(N)nc2c(c1-c1cnc(N3CCCC3)nc1)COCC2`, the cytotoxicity at 70.5 h is -5.19%.

Consider `O=C(O)c1cc(S(=O)(=O)Nc2ccc(F)cc2Cl)cc2c1OCCO2`, for which the cytotoxicity at 70.5 h was 0.949%.

For `O=C(CCC(F)(F)F)NCC1CCCS1` (stereo unspecified), the cytotoxicity at 70.5 h is -6.67%.

With `Cc1cc(O)c(OCC(=O)/N=c2\[nH]c(C)cs2)cn1`, the cytotoxicity at 70.5 h was -2.18%.

`Fc1ccc(-c2nc(CNC3CCc4ncnn4C3)co2)cc1` (stereo unspecified): the cytotoxicity at 70.5 h is -4.87%.

For `CC(C)C(CNC(=O)CCn1cncn1)N1CCc2ccccc2C1` (stereo unspecified), the cytotoxicity at 70.5 h was -6.95%.

Take `Cn1cc(CNC2CCCOc3c2ccc2ccccc32)cn1` (stereo unspecified): the cytotoxicity at 70.5 h is 2.1%.

Take `CC(=O)c1ccc(NC(=O)N[C@H](C(=O)O)C(C)C)cc1`: the cytotoxicity at 70.5 h was -6.92%.

Take `CCC(CC)(CC)NC(=O)Nc1nnc(-c2ccccn2)s1`: the cytotoxicity at 70.5 h is -13.2%.

Turning to `COCC1CN(C(=O)COc2ccccc2)Cc2ncn(C)c21` (stereo unspecified), the cytotoxicity at 70.5 h was -0.249%.

For `O=S(=O)(c1cccnc1)N1CCCC1COc1ccccc1` (stereo unspecified), the cytotoxicity at 70.5 h was -4.52%.

`CN(Cc1ccoc1)C(=O)C1(Oc2ccc(Cl)cc2)CCNCC1`: the cytotoxicity at 70.5 h was -6.31%.

As to `O=C(Cc1ccsc1)N1CCc2ncc(Cn3cccn3)n2CC1`, the cytotoxicity at 70.5 h was -13.8%.

Turning to `COCCN1C[C@H]2CN(C(=O)NCc3ccccc3)CCN2C1=O`, the cytotoxicity at 70.5 h was -8.58%.

With `O=C(C1CCCN(C2CCOCC2)C1)N1CCc2ncccc2C1` (stereo unspecified), the cytotoxicity at 70.5 h was -4.26%.

In the case of `Cc1noc([C@@H]2C[C@H](NC(=O)Nc3cccc(F)c3)CN2C)n1`, the cytotoxicity at 70.5 h stood at 6.23%.

Consider `N#CC1(c2ccccc2)CCN(C(=O)C2CCCN(C(N)=O)C2)CC1` (stereo unspecified), for which the cytotoxicity at 70.5 h turned out to be 43.9%.

As to `O=C(NCc1ccccc1F)N1CCCCC1C1OCCO1` (stereo unspecified), the cytotoxicity at 70.5 h is -17.1%.

Regarding `Cc1nccn1CCCC(=O)N1CCCC(c2noc(C(C)C)n2)C1` (stereo unspecified), the cytotoxicity at 70.5 h is -2.96%.

Turning to `O=c1[nH]cnc2[nH]c(N3CCOCC3)nc12`, the cytotoxicity at 70.5 h came out at 26.5%.

On to `COc1ccc(CNC(C)c2ccc3[nH]c(=O)[nH]c3c2)cc1` (stereo unspecified), for which the cytotoxicity at 70.5 h was -2.85%.

For the compound `Cc1ccc(N2CCCN(C(=O)c3cccc4c3ccn4C)CC2)nn1`, the cytotoxicity at 70.5 h was -7.32%.

For `CCc1ccc(CN2CCNC(C(=O)N3CCN(C)CC3)C2)nc1` (stereo unspecified), the cytotoxicity at 70.5 h was -0.217%.

In the case of `CC(C)(C)C(=O)Cn1nc(C2CC2)cc(C(F)(F)F)c1=O`, the cytotoxicity at 70.5 h was -0.663%.

As to `Fc1cccc(CN2CCOCC3(CCN(C4CCOCC4)C3)C2)c1` (stereo unspecified), the cytotoxicity at 70.5 h is -7.34%.

For `CN(C)S(=O)(=O)NC(=O)CC(c1ccccc1)C(F)(F)F` (stereo unspecified), the cytotoxicity at 70.5 h was -2.07%.

For the compound `CN(Cc1cnc(N)nc1)CC1CCCN(CCc2ccc(Cl)cc2)C1` (stereo unspecified), the cytotoxicity at 70.5 h turned out to be 8.66%.

In the case of `COc1cc2c(cc1OC)CN(C(=O)Cn1nc(C)cc1C)CC2`, the cytotoxicity at 70.5 h was -5.35%.

Take `COCCN(CCOC)C(=O)c1cc(F)cc2[nH]cnc12`: the cytotoxicity at 70.5 h is -4.53%.

For `Cn1cccc1C(=O)NCc1cn2c(n1)CN(Cc1cccnc1)CC2`, the cytotoxicity at 70.5 h is -12.8%.

Take `Cc1nsc(NCCNS(=O)(=O)c2cccc(Cl)c2)n1`: the cytotoxicity at 70.5 h amounted to 9.23%.

Take `CC(=O)NCCN1CCC(c2cccs2)CC1`: the cytotoxicity at 70.5 h was found to be 0.738%.

Turning to `COc1cccc(C(=O)NS(=O)(=O)c2cccc(C#N)c2)c1OC`, the cytotoxicity at 70.5 h was -13.8%.

Take `O=C1CO[C@@H]2CN(CC3CCOCC3)C[C@H]2N1Cc1ccncc1`: the cytotoxicity at 70.5 h was -2.17%.

For `CC(C)(C)N1CC(C(=O)NCc2nc(C3CCCCC3)no2)CC1=O` (stereo unspecified), the cytotoxicity at 70.5 h is -4.38%.

Consider `CCNC(c1ccc(Cl)cc1)c1cccnc1` (stereo unspecified), for which the cytotoxicity at 70.5 h came out at 34.5%.

For the compound `CC(C(=O)N1CCN(c2ncccn2)CC1)n1cncn1` (stereo unspecified), the cytotoxicity at 70.5 h is -9.39%.

As for `Cc1cnc(N2CCCC3(CCOCC3)C2)nc1`, the cytotoxicity at 70.5 h was -1.55%.

`Cc1cnc(N2CCC3(CC2)C(c2ccccc2)CC(=O)N3C)nc1` (stereo unspecified): the cytotoxicity at 70.5 h is -10.2%.

For the compound `Cc1nc(CN2CCCn3c(nc(Cn4cncn4)cc3=O)C2)cs1`, the cytotoxicity at 70.5 h was found to be 22.5%.

On to `Cc1cc(C2CCCCN2C(=O)CN2C(=O)OC(C)(C)C2=O)no1` (stereo unspecified), for which the cytotoxicity at 70.5 h was -7.73%.

`CCn1cc(CN2CCC3(CC2)c2ccccc2CC3O)cn1` (stereo unspecified): the cytotoxicity at 70.5 h is -8.46%.

With `NC(=O)COc1ccc(CN2CC[C@@]3(O)CCCC[C@H]3C2)cc1Cl`, the cytotoxicity at 70.5 h is -2.71%.

For `CCCNC(=O)C1CCCN(Cc2csc(C(C)(C)C)n2)C1` (stereo unspecified), the cytotoxicity at 70.5 h was determined as 17.8%.

On to `O=C(Nc1ccc2c(c1)OCO2)N1CCCC1c1ccco1` (stereo unspecified), for which the cytotoxicity at 70.5 h was -4.29%.

In the case of `O=C(NCCCn1cccn1)N1CCCC1c1cccs1` (stereo unspecified), the cytotoxicity at 70.5 h is -7.95%.

`CCN(C)C(=O)c1ccc2c(c1)C(c1nc[nH]n1)CN2S(C)(=O)=O` (stereo unspecified): the cytotoxicity at 70.5 h was -8.39%.

Take `O=C(Nc1ccc(F)cc1)C1CNCCN1C(=O)CSc1ccncc1` (stereo unspecified): the cytotoxicity at 70.5 h is 28.9%.

Take `O=S(=O)(Cc1cc(-c2ccccc2)no1)CC1CCCO1` (stereo unspecified): the cytotoxicity at 70.5 h was -8.25%.

For the compound `O=C(c1ccc2c(c1)COC2)N1CCCN(Cc2cscn2)CC1`, the cytotoxicity at 70.5 h is 1.09%.

On to `CNC(=O)c1cccc(C2CNCCN2C(=O)c2ccn(C)n2)c1` (stereo unspecified), for which the cytotoxicity at 70.5 h was 0.974%.

For the compound `CN1CCN(Cc2cn3c(n2)CN(Cc2cccnc2)CC3)CC1`, the cytotoxicity at 70.5 h was found to be 19.4%.

On to `CCc1cnc(CN(C)C2CCN(CCc3cccs3)C2)o1` (stereo unspecified), for which the cytotoxicity at 70.5 h is -4.48%.

Consider `Cc1noc(C)c1CN(C)c1nc(C2CCCC2)nc2c1cnn2C`, for which the cytotoxicity at 70.5 h amounted to 9.62%.

For the compound `c1ccc2oc(N3CCn4c(nnc4C4CC4)C3)nc2c1`, the cytotoxicity at 70.5 h is -2.1%.

On to `CC(C)(CN1CCC(Cc2ccc(CO)cc2)C1)N1CCOCC1` (stereo unspecified), for which the cytotoxicity at 70.5 h is -10.6%.

For `CC(C)(C)c1ccc2c(c1)CCN2C(=O)c1[nH]c(=O)[nH]c(=O)c1N`, the cytotoxicity at 70.5 h is -6.44%.

Take `CNC(=O)CN1CCOCC2(C1)CN(Cc1csnn1)CCO2` (stereo unspecified): the cytotoxicity at 70.5 h turned out to be 12.8%.

As to `CC(C)C(C(N)=O)c1cccc(Cl)c1` (stereo unspecified), the cytotoxicity at 70.5 h is -3.86%.

Regarding `Cn1cc(CN2C[C@@H]3COC[C@@H](C(=O)N4CCCCO4)[C@@H]3C2)cn1`, the cytotoxicity at 70.5 h is -1.2%.

On to `c1cc(CNCc2ccc(-n3cncn3)nc2)cc(OC2CCCC2)c1`, for which the cytotoxicity at 70.5 h is -6.11%.
